B1: recombinant G-CSF: the natural ligand (i.e. G-CSF or recombinant G-CSF) (protein, UniProt P09919 31-207, looked up)
Granulocyte …: TPLGPASSLPQSFLLKCLEQVRKIQGDGAALQEKLVSECATYKLCHPEELVLLGHSLGIPWAPLSSCPSQALQLAGCLSQLHSGLFLYQGLLQALEGISPELGPTLDTLQLDVADFATTIWQQMEELGMAPALQPTQGAMPAFASAFQRRAGGVLVASHLQSFLEVSYRVLRHLAQP

Tests used:
G-CSF/Fc fusion protein = biological target: T1, G-CSF/Fc fusion protein (Mus musculus, UniProt P40223); assay: Isothermal titration microcalorimetry; type: binding; conditions: only in the presence of zinc
T1 construct: which contained the extracellular domain of the receptor presented in a dimeric form due to the Fc component
T1 sequence (P40223 26-626 limits assumed): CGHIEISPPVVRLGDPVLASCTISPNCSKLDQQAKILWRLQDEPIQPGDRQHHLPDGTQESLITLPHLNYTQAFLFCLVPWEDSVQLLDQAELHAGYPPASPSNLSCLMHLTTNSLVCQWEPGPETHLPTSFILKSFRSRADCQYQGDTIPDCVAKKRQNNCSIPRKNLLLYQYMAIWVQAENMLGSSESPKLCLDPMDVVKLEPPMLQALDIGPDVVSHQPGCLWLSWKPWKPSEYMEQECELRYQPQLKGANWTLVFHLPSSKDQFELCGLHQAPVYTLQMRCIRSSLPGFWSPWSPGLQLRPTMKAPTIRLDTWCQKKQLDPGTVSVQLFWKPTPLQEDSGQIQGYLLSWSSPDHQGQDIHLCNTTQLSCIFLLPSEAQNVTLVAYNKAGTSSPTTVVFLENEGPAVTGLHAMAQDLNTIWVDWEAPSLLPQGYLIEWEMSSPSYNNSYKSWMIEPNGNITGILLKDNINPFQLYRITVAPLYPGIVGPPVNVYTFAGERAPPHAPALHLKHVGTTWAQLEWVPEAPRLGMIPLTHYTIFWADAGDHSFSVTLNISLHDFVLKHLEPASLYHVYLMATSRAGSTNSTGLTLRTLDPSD
Procedure: Zinc-mediated affinity of compounds from this invention for dimeric cell-surface receptors (specifically the G-CSF receptor) was measured by isothermal titration microcalorimetry experiments. Titration microcalorimetry detects binding as heat originating from the intrinsic bond forming enthalpy change. In this assay, the compounds were titrated first against zinc(II) alone. In a separate experiment, the compounds were then assayed in the presence of zinc and a dimeric cell-surface receptor/Fc fusion protein (a G-CSF/Fc fusion protein), which contained the extracellular domain of the receptor presented in a dimeric form due to the Fc component.

G-CSF receptor = biological target: T2, G-CSF receptor (Mus musculus, UniProt P40223); assay: Luciferase assay in the presence of EDTA (NFS60 cells); type: cell-based, murine
T2 construct: they express endogenous G-CSF receptors; endogenous in cells; host or cells: NFS60 murine myeloid cells carrying a G-CSF-responsive luciferase reporter
T2 sequence (P40223 26-837): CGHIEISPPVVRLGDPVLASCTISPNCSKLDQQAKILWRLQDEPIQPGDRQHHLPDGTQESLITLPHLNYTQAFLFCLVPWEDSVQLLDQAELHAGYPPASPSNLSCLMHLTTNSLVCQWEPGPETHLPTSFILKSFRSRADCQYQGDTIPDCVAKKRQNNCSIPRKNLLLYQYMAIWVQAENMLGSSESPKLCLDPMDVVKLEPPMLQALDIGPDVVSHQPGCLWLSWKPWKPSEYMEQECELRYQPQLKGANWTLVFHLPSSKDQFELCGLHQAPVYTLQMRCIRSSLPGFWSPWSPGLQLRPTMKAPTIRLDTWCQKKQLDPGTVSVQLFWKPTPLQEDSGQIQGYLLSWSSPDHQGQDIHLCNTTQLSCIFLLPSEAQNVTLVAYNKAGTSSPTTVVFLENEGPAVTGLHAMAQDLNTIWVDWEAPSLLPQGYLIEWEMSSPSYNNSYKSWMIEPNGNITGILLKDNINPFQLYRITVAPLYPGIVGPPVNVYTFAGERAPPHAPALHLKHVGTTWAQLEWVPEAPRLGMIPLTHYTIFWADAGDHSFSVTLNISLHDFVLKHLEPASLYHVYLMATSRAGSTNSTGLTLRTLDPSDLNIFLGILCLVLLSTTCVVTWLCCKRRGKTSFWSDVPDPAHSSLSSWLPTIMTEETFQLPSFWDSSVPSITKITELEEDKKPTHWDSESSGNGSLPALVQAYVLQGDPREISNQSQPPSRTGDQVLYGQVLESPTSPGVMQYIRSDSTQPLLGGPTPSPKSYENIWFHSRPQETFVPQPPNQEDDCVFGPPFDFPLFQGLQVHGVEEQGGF
Procedure: FIG. 3 is an analysis of the effect of ethylenediaminetetraacetic acid (as used herein—EDTA) on the activity of Compound 1a (from Example 1) in NFS60 cells. Shown are luciferase response curves of Compound 1a at the indicated concentrations and in the presence of various concentrations of EDTA. […] The media in this assay contained a small amount (1-5 μM) of zinc(II).
FIGS. 7 and 8 show an analysis of the effect of metal chlorides on the EDTA depleted activity of Compound 1a on NFS60 cells. Shown are luciferase response curves as effected by the indicated metal chlorides. […] None of the other metals tested could overcome the inhibitory effect of EDTA.
In order to determine the requisiteness of zinc chelation of small organic molecules to agonist activity at dimeric cell-surface receptors, the above luciferase assay was performed on the G-CSF receptor in the presence of EDTA. EDTA is a strong metal chelator and had as its only effect, the removal of zinc from the ligand-receptor interaction.

| Molecule | affinity for the fusion protein construct (G-CSF/Fc fusion protein) | effect of metal chlorides on the EDTA depleted luciferase activity (G-CSF receptor; 50 micromolar EDTA, metal chlorides (zinc, manganese, iron, copper, cobalt)) | effect of EDTA on luciferase activity (G-CSF receptor; EDTA at 1.2 millimolar, media contained 1-5 μM zinc(II)) | agonist activity in the presence of EDTA (G-CSF receptor; FIG. 3) | effect of EDTA on luciferase activity (G-CSF receptor; EDTA at both 1.2 and 5 millimolar) |
| --- | --- | --- | --- | --- | --- |
| Cc1ccc2nc(N=C3NC4(c5ccccn5)NC(=Nc5nc6ccccc6[nH]5)NC4(c4ccccn4)N3)[nH]c2c1.O=C(O)C(F)(F)F.O=C(O)C(F)(F)F (stereo not drawn) [Compound 3a, 5-(2-benzimidazolylimino)-2-[(5-methyl-2-benzimidazolyl)imino]-3a,6a-bis(2-pyridyl)-1,2,3,3a,4,5,6,6a-octahydroimidazo[4,5-d]imidazole bis(trifluoroacetate) salt] | high, submicromolar affinity |  |  |  |  |
| c1ccc(C23NC(=Nc4nc5ccccc5[nH]4)NC2(c2ccccn2)NC(=Nc2nc4ccccc4[nH]2)N3)nc1 (stereo not drawn) [Compound 1a, 2,5-Bis[2-benzimidazolylimino]-3a,6a-bis(2-pyridyl)-1,2,3,3a,4,5,6,6a-octahydroimidazo[4,5-d]imidazole] | high, submicromolar affinity | Only zinc (II) at concentrations 0.5-10 micromolar can overcome the inhibition | antagonized | abrogated |  |
| B1 |  |  |  |  | little effect |
